Where “and” joins values, the source holds several entries; their conditions need not be identical. Equal entries are not always repeated. Inconclusive results and toxic doses are left out. The calls were made as follows: active = survival T/C of 150% or more; inactive = T/C below 125% in these data.
Tested on: CD2F1 mice, L1210 leukemia ip, survival T/C
Test: NCI In Vivo Anticancer Drug Screen. Data for tumor model L1210 Leukemia (intraperitoneal) in CD2F1 (CDF1) mice
Conditions: higher = longer survival
Summary of the method: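 Tumor-bearing mice (transplanted tumor) were split into treated and vehicle control groups, and the measured endpoint of each treated group was divided by that of its vehicle controls.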

Measured: T/C

O=NN(CCCl)C(=O)NCCCl
inactive: endpoint: mean survival time, dose: 3.75 mg/kg/injection, schedule: Q01DX001 (ip), vehicle: distilled water + alcohol 115 % of control | endpoint: mean survival time, dose: 3.75 mg/kg/injection, schedule: Q01DX001 (ip), vehicle: saline + alcohol 114 % of control | endpoint: mean survival time, dose: 4.0 mg/kg/injection, schedule: Q01DX001 (ip), vehicle: saline + alcohol 113 % of control and 115 % of control | endpoint: mean survival time, dose: 5.0 mg/kg/injection, schedule: Q01DX001 (ip), vehicle: saline 113 % of control | endpoint: mean survival time, dose: 6.25 mg/kg/injection, schedule: Q01DX001 (ip), vehicle: saline + alcohol 119 % of control and 120 % of control | endpoint: mean survival time, dose: 7.5 mg/kg/injection, schedule: Q01DX001 (ip), vehicle: distilled water + alcohol 123 % of control | endpoint: median survival time, dose: 0.9 mg/kg/injection, schedule: Q01DX009 (ip), vehicle: saline + alcohol 116 % of control and 122 % of control | endpoint: median survival time, dose: 24.0 mg/kg/injection, schedule: Q01DX009 (ip), vehicle: saline + alcohol 124 % of control | endpoint: median survival time, dose: 80.0 mg/kg/injection, schedule: Q01DX001 (ip), vehicle: Klucel (hydroxypropylcellulose) (HPC) 117 % of control | endpoint: median survival time, dose: 80.0 mg/kg/injection, schedule: Q01DX001 (ip), vehicle: saline 123 % of control
active: endpoint: mean survival time, dose: 2.0 mg/kg/injection, schedule: Q01DX009 (ip), vehicle: other 177 % of control and 293 % of control | endpoint: mean survival time, dose: 3.8 mg/kg/injection, schedule: Q01DX001 (ip), vehicle: Klucel (hydroxypropylcellulose) (HPC) 150 % of control | endpoint: mean survival time, dose: 4.0 mg/kg/injection, schedule: Q01DX009 (ip), vehicle: other 201 % of control and 255 % of control | endpoint: mean survival time, dose: 4.0 mg/kg/injection, schedule: Q04DX003 (ip), vehicle: saline + alcohol 189 % of control | endpoint: mean survival time, dose: 7.5 mg/kg/injection, schedule: Q01DX001 (ip), vehicle: Klucel (hydroxypropylcellulose) (HPC) 164 % of control | endpoint: mean survival time, dose: 8.0 mg/kg/injection, schedule: Q01DX009 (ip), vehicle: other 183 % of control | endpoint: mean survival time, dose: 8.0 mg/kg/injection, schedule: Q04DX003 (ip), vehicle: saline + alcohol 230 % of control | endpoint: mean survival time, dose: 9.4 mg/kg/injection, schedule: Q01DX001 (ip), vehicle: saline + alcohol 156 % of control and 197 % of control | endpoint: mean survival time, dose: 10.0 mg/kg/injection, schedule: Q01DX001 (ip), vehicle: DMSO 158 % of control | endpoint: mean survival time, dose: 12.5 mg/kg/injection, schedule: Q01DX001 (ip), vehicle: saline + alcohol 152 % of control and 188 % of control and 212 % of control | endpoint: mean survival time, dose: 14.0 mg/kg/injection, schedule: Q01DX001 (ip), vehicle: saline 171 % of control | endpoint: mean survival time, dose: 14.0 mg/kg/injection, schedule: Q07DX003 (ip), vehicle: saline + alcohol 330 % of control | endpoint: mean survival time, dose: 14.0 mg/kg/injection, schedule: Q11HX001 (ip), vehicle: saline 171 % of control | endpoint: mean survival time, dose: 14.22 mg/kg/injection, schedule: Q01DX001 (ip), vehicle: saline + alcohol 172 % of control | endpoint: mean survival time, dose: 15.0 mg/kg/injection, schedule: Q01DX001 (ip), vehicle: Klucel (hydroxypropylcellulose) (HPC) 332 % of control | endpoint: mean survival time, dose: 15.0 mg/kg/injection, schedule: Q01DX001 (ip), vehicle: saline 172 % of control and 248 % of control | endpoint: mean survival time, dose: 16.0 mg/kg/injection, schedule: Q01DX001 (ip), vehicle: other 150 % of control | endpoint: mean survival time, dose: 16.0 mg/kg/injection, schedule: Q04DX003 (ip), vehicle: saline + alcohol 273 % of control | endpoint: mean survival time, dose: 18.8 mg/kg/injection, schedule: Q01DX001 (ip), vehicle: saline + alcohol 319 % of control | endpoint: mean survival time, dose: 20.0 mg/kg/injection, schedule: Q01DX001 (ip), vehicle: DMSO 270 % of control | endpoint: mean survival time, dose: 20.0 mg/kg/injection, schedule: Q01DX001 (ip), vehicle: Klucel (hydroxypropylcellulose) (HPC) 300 % of control | endpoint: mean survival time, dose: 20.0 mg/kg/injection, schedule: Q01DX001 (ip), vehicle: other 169 % of control | endpoint: mean survival time, dose: 20.0 mg/kg/injection, schedule: Q11HX001 (ip), vehicle: saline 198 % of control | endpoint: mean survival time, dose: 21.3 mg/kg/injection, schedule: Q01DX001 (ip), vehicle: saline + alcohol 248 % of control | endpoint: mean survival time, dose: 25.0 mg/kg/injection, schedule: Q01DX001 (ip), vehicle: saline + alcohol 335 % of control | endpoint: mean survival time, dose: 30.0 mg/kg/injection, schedule: Q01DX001 (ip), vehicle: distilled water + alcohol 196 % of control | endpoint: mean survival time, dose: 30.0 mg/kg/injection, schedule: Q01DX001 (ip), vehicle: saline 232 % of control | endpoint: mean survival time, dose: 30.0 mg/kg/injection, schedule: Q11HX001 (ip), vehicle: saline 232 % of control | endpoint: mean survival time, dose: 32.0 mg/kg/injection, schedule: Q01DX001 (ip), vehicle: other 246 % of control | endpoint: mean survival time, dose: 32.0 mg/kg/injection, schedule: Q01DX001 (ip), vehicle: saline 287 % of control | endpoint: mean survival time, dose: 33.0 mg/kg/injection, schedule: Q07DX003 (ip), vehicle: saline + alcohol 323 % of control | endpoint: mean survival time, dose: 40.0 mg/kg/injection, schedule: Q01DX001 (ip), vehicle: Klucel (hydroxypropylcellulose) (HPC) 311 % of control | endpoint: mean survival time, dose: 40.0 mg/kg/injection, schedule: Q01DX001 (ip), vehicle: other 311 % of control | endpoint: mean survival time, dose: 45.0 mg/kg/injection, schedule: Q01DX001 (ip), vehicle: saline 179 % of control | endpoint: mean survival time, dose: 45.0 mg/kg/injection, schedule: Q11HX001 (ip), vehicle: saline 180 % of control | endpoint: mean survival time, dose: 50.0 mg/kg/injection, schedule: Q01DX001 (ip), vehicle: saline + alcohol 291 % of control | endpoint: mean survival time, dose: 56.25 mg/kg/injection, schedule: Q01DX001 (ip), vehicle: saline + alcohol 252 % of control | endpoint: mean survival time, dose: 60.0 mg/kg/injection, schedule: Q01DX001 (ip), vehicle: distilled water + alcohol 222 % of control | endpoint: mean survival time, dose: 80.0 mg/kg/injection, schedule: Q01DX001 (ip), vehicle: saline + alcohol 168 % of control | endpoint: median survival time, dose: 1.75 mg/kg/injection, schedule: Q01DX009 (ip), vehicle: saline + alcohol 156 % of control | endpoint: median survival time, dose: 1.8 mg/kg/injection, schedule: Q01DX009 (ip), vehicle: saline + alcohol 169 % of control | endpoint: median survival time, dose: 3.0 mg/kg/injection, schedule: Q01DX009 (ip), vehicle: saline + alcohol 172 % of control | endpoint: median survival time, dose: 3.5 mg/kg/injection, schedule: Q01DX009 (ip), vehicle: saline + alcohol 182 % of control and 241 % of control and 246 % of control | endpoint: median survival time, dose: 5.0 mg/kg/injection, schedule: Q04DX003 (ip), vehicle: saline + alcohol 152 % of control | endpoint: median survival time, dose: 6.0 mg/kg/injection, schedule: Q01DX009 (ip), vehicle: saline + alcohol 256 % of control | endpoint: median survival time, dose: 7.0 mg/kg/injection, schedule: Q01DX009 (ip), vehicle: saline + alcohol 218 % of control and 259 % of control | endpoint: median survival time, dose: 8.0 mg/kg/injection, schedule: Q01DX001 (ip), vehicle: saline + alcohol 153 % of control | endpoint: median survival time, dose: 10.0 mg/kg/injection, schedule: Q01DX001 (ip), vehicle: Klucel (hydroxypropylcellulose) (HPC) 171 % of control and 197 % of control | endpoint: median survival time, dose: 10.0 mg/kg/injection, schedule: Q01DX001 (ip), vehicle: saline + alcohol 156 % of control and 178 % of control | endpoint: median survival time, dose: 10.0 mg/kg/injection, schedule: Q01DX009 (ip), vehicle: saline 176 % of control | endpoint: median survival time, dose: 10.0 mg/kg/injection, schedule: Q03DX003 (ip), vehicle: DMSO 294 % of control | endpoint: median survival time, dose: 10.0 mg/kg/injection, schedule: Q04DX003 (ip), vehicle: saline + alcohol 188 % of control | endpoint: median survival time, dose: 11.5 mg/kg/injection, schedule: Q01DX001 (ip), vehicle: saline + alcohol 165 % of control | endpoint: median survival time, dose: 12.0 mg/kg/injection, schedule: Q01DX009 (ip), vehicle: saline + alcohol 168 % of control | endpoint: median survival time, dose: 14.0 mg/kg/injection, schedule: Q01DX009 (ip), vehicle: saline + alcohol 158 % of control and 162 % of control and 185 % of control | endpoint: median survival time, dose: 14.0 mg/kg/injection, schedule: Q07DX003 (ip), vehicle: saline + alcohol 273 % of control | endpoint: median survival time, dose: 14.4 mg/kg/injection, schedule: Q01DX001 (ip), vehicle: saline + alcohol 152 % of control and 157 % of control | endpoint: median survival time, dose: 15.0 mg/kg/injection, schedule: Q01DX009 (ip), vehicle: saline 164 % of control | endpoint: median survival time, dose: 16.0 mg/kg/injection, schedule: Q01DX001 (ip), vehicle: saline + alcohol 255 % of control | endpoint: median survival time, dose: 19.2 mg/kg/injection, schedule: Q01DX001 (ip), vehicle: saline + alcohol 192 % of control | endpoint: median survival time, dose: 20.0 mg/kg/injection, schedule: Q01DX001 (ip), vehicle: Klucel (hydroxypropylcellulose) (HPC) 226 % of control and 234 % of control | endpoint: median survival time, dose: 24.0 mg/kg/injection, schedule: Q01DX001 (ip), vehicle: saline + alcohol 152 % of control and 186 % of control | endpoint: median survival time, dose: 32.0 mg/kg/injection, schedule: Q01DX001 (ip), vehicle: saline + alcohol 186 % of control | endpoint: median survival time, dose: 40.0 mg/kg/injection, schedule: Q01DX001 (ip), vehicle: Klucel (hydroxypropylcellulose) (HPC) 343 % of control | endpoint: median survival time, dose: 40.0 mg/kg/injection, schedule: Q04DX003 (ip), vehicle: saline + alcohol 164 % of control | endpoint: median survival time, dose: 66.7 mg/kg/injection, schedule: Q01DX001 (ip), vehicle: saline + alcohol 179 % of control and 184 % of control | endpoint: median survival time, dose: 160.0 mg/kg/injection, schedule: Q01DX001 (ip), vehicle: Klucel (hydroxypropylcellulose) (HPC) 168 % of control
